From patent US12209096B2, “Compounds and compositions for inducing chondrogenesis” (NOVARTIS AG, priority 2017, dated 2025) come the findings set out here.

Where only a bound is given, the exact number is not on record here.

Data set [1] can be described thus: intrinsic clearance in rat liver microsomes. Type of data set: in vitro ADME.
A short description of data set [2]: intrinsic clearance in human liver microsomes. Type of data set: in vitro ADME. For orientation: Liver microsomes are a subcellular fraction often used to study metabolism.
In data set [3] the target is CYP3A4 (Homo sapiens, UniProt P08684). Description: CYP3A4 inhibition. Type of data set: in vitro ADME. To be noted: read-out: CYP3A4 inh.
Sequence of CYP3A4 (P08684 whole entry): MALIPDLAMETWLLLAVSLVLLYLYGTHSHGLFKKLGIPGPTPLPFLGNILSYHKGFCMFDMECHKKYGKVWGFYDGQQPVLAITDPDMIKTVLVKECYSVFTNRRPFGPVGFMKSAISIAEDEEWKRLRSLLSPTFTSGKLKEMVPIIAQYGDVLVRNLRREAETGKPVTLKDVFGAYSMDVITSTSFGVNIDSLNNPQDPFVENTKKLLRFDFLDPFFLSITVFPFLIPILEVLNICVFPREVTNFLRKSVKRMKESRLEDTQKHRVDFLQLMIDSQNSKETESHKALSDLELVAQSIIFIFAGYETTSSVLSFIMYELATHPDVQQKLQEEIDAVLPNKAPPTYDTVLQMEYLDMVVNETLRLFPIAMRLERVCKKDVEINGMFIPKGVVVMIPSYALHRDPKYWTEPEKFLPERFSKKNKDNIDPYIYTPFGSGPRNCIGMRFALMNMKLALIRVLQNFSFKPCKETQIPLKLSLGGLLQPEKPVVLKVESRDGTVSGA
For data set [4], the system named is NHACs. Kind of data set: calcium flux assay. To be noted: Homo sapiens; for Emax: read-out: (A) % Efficacy. The data set is classed as cell-based, human. The method in brief:
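Normal human articular chondrocytes plated at 2000 cells/well and loaded 24 h later with Calcium 5 dye in HBSS/HEPES with 5 mM probenecid for 1 h at room temperature. Test compound added at indicated dose; fluorescence (ex 470–495/em 515–575 nm) recorded on FLIPR before and after addition.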
On the technique in general: Calcium assays in cells follow changes in intracellular calcium, usually with a dye or a luminescent sensor.

In data set [5] the test system is human chondrogenic progenitor cell (CPCs). Description: Collagen type II assay (chondrogenic differentiation). The data set is classed as cell-based. To be noted: 432 h, hCPCs, 18 days; for Emax: read-out: (B) % Efficacy; for EC50: read-out: (B) EC50. As for the experimental part: To initiate chondrogenesis in primary CPCs, 8000 cells were plated/well in a Costar 96 well plate in MSCGM. After 24 hours the MSCGM was removed and replaced with DMEM containing 1% FBS. The test compound was then added to each well at the indicated dose. The cultures were grown at 37° C. for 18 days. A media supplement of an additional 50 μl of DMEM containing 1% FBS was given 10 days after chondrogenic induction.
To detect the presence of Collagen type II, hCPCs were fixed with 10% formalin for 20 minutes, permeablized with PBS containing 0.1% triton X-100, 0.2 mg/ml of Collagenase 2 for 10 minutes, blocked with PBS containing 5% BSA for 1 hr at room temperature, followed by incubation with primary antibody (anti-type II collagen antibody) in PBS containing 1% BSA overnight at 4° C. Cells were washed 3 times with PBS and incubated with fluorophore-conjugated secondary antibody and Hoechst dye for 1 hour at room temperature, followed by washing with PBS for 3 times.
The total intensity of staining was imaged by fluoresecent microscopy and/or quantified by high content imagining with the ImageXpress Micro (Molecular Devices, Sunnyvale, CA). Data analyses were performed with the customized multiwavelength cell-scoring application.

Data set [6] concerns normal human articular chondrocytes (NHACs). Description: alkaline phosphatase assay in NHAC. Type of data set: cell-based. To be noted: Homo sapiens, Chondrocyte, 240 h, 10 days; for Emax: read-out: (C) % Efficacy; for IC50: read-out: (C) IC50. As for the experimental part: To initiate differentiation in NHACs, 16,000 cells were plated/well in Costar 96 well plate in CGM media (Lonza). After 24 hours the MSCGM was removed and replaced with DMEM containing 1% FBS. The test compound was then added to each well at the indicated dose. The cultures were grown at 37° C. for 10 days.
To detect the presence of hypertrophic cells, NHACs were fixed with 10% formalin and Hoeschst dye for 20 minutes, rinsed in PBS, then stained with Fast Blue RR Salt with Naphthol AS-MX Phosphate Alkaline Solution.
The total intensity of staining was imaged by fluoresecent microscopy, using the 651 wavelength, and/or quantified by high content imagining with the ImageXpress Micro (Molecular Devices, Sunnyvale, CA). Data analyses were performed with the customized multiwavelength cell-scoring application.

In data set [7] the test system is C3H10T1/2 cell line. Description: alkaline phosphatase assay in C3H10T1/2. The data set is classed as cell-based. Particulars: Mus musculus, C3H 10T1/2, 144 h, alkaline phosphatase assay in C3H10T1/2, 6 days; for Emax: read-out: (D) % Efficacy; for IC50: read-out: (D) IC50. The method in brief: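 Mouse C3H10T1/2 Clone 8 cells in DMEM/10% FBS dosed 24 h after plating, then cultured 6 days at 37° C. Fixed cells stained for alkaline phosphatase (Fast Blue RR/Naphthol AS-MX), imaged at 561 nm; readout is ALP-positive cells per well by high-content imaging.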

The microsomal CLint is a measure of how fast metabolising enzymes remove a compound, apart from limits set by blood flow. Read a high microsomal CLint as rapid turnover. Turning to `O=C(Nc1ccc(Cl)c(Cl)c1)[C@H]1[C@@H](c2ccncc2)[C@H]2O[C@@H]1C[C@@H]2O`, the microsomal CLint in data set [1] and in data set [2] was 7 µL/min/mg each time. In addition, the IC50 in data set [3] is more than 25 µM.
For the compound `Nc1cc([C@H]2[C@H]3O[C@H](C[C@@H]3O)[C@@H]2C(=O)Nc2ccc(Cl)c(Cl)c2)ccn1` [drawing 199], the intrinsic clearance (microsomal CLint) in data set [1] turned out to be 11 µL/min/mg; in data set [2], 7 µL/min/mg. In addition, the IC50 in data set [3] is 20 µM.
For `O=C(Nc1ccc(Cl)c(Cl)c1)[C@H]1[C@@H](c2ccncc2)[C@@H]2CC[C@H]1O2` [reference compound], the figures for the microsomal CLint in data set [1] and in data set [2] were 466 µL/min/mg and 202 µL/min/mg, respectively. For the same compound, the IC50 in data set [3] is 6 µM.
For `Nc1cc([C@@H]2[C@@H](C(=O)Nc3ccc(Cl)c(Cl)c3)[C@H]3CC[C@@H]2O3)ccn1` [reference compound], in that order: 243 µL/min/mg, 38 µL/min/mg and 5 µM.
Broadly, the EC50 is the midpoint of the concentration-response curve. For `Cc1cc([C@H]2[C@H]3O[C@H](C[C@@H]3O)[C@H]2C(=O)Nc2ccc(Cl)c(Cl)c2)ccn1` (single isomer, unassigned) [Example 53a], the results for the EC50 in data set [4] and in data set [5] were more than 50 µM and 13 µM, respectively. The Emax in data set [4] amounted to 12%; in data set [5] it was 44%; in data set [6], 83%; in data set [7] it was 0%. The IC50 in data set [6] was 31 µM; in data set [7] it was more than 20 µM.
Consider `Cc1cc([C@H]2[C@H]3O[C@H]([C@H](O)[C@@H]3O)[C@@H]2C(=O)Nc2ccc(Cl)c(Cl)c2)ccn1` (single isomer, unassigned) [Example 156], for which the figures for the EC50 in data set [4] and in data set [5] were 18 µM and 0.95 µM, respectively. The Emax in data set [4] stood at 28%; in data set [5], 99%; in data set [6], 103%; in data set [7] it was 42%. Further, the IC50 was 15 µM in data set [6] and more than 20 µM in data set [7].
